Measured values taken from ChEMBL document CHEMBL4725449, “Brain Penetrable Inhibitors of Ceramide Galactosyltransferase for the Treatment of Lysosomal Storage Disorders” (ACS Med Chem Lett, 2020).

Columns and labels:
[1] = Volume of distribution at steady state in Beagle dog at 1 mg/kg, iv; assay type: ADME, organism-based, Canis lupus familiaris; conditions: in vivo, read-out: Vdss
[2] = target: T1, 2-hydroxyacylsphingosine 1-beta-galactosyltransferase (Homo sapiens, UniProt Q16880); assay: Inhibition of UGT8 in human OE19 cells assessed as redcution in SFT accumulation measured after 72 hrs by LC-MS/MS analysis; assay type: cell-based
T1 sequence (Q16880 whole entry): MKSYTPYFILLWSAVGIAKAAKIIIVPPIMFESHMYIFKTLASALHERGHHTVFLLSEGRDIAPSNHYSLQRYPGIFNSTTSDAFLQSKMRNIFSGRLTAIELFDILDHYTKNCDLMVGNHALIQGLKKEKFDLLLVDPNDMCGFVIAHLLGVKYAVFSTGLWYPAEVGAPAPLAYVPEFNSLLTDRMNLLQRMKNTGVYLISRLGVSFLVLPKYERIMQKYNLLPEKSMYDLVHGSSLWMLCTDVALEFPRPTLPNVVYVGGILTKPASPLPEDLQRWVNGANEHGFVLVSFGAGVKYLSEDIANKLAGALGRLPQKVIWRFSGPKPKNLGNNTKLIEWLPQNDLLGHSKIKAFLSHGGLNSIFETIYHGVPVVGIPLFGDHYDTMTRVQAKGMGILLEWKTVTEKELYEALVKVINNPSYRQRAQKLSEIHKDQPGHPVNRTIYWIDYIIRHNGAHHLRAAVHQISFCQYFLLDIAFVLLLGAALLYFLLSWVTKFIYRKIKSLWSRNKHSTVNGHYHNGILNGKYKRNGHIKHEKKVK

[3] = Clearance in Sprague-Dawley rat at 1 mg/kg, iv; assay type: ADME, organism-based; conditions: in vivo
[4] = Cmax in C57BL/6 mouse at 3 mg/kg, po; assay type: ADME, organism-based; parameters: route oral, dose 3 mg/kg; conditions: in vivo
[5] = target: T2, 2-hydroxyacylsphingosine 1-beta-galactosyltransferase (Mus musculus, UniProt Q64676); assay: Inhibition of mouse UGT8 assessed as redcution in GalCer accumulation
T2 sequence (Q64676 whole entry): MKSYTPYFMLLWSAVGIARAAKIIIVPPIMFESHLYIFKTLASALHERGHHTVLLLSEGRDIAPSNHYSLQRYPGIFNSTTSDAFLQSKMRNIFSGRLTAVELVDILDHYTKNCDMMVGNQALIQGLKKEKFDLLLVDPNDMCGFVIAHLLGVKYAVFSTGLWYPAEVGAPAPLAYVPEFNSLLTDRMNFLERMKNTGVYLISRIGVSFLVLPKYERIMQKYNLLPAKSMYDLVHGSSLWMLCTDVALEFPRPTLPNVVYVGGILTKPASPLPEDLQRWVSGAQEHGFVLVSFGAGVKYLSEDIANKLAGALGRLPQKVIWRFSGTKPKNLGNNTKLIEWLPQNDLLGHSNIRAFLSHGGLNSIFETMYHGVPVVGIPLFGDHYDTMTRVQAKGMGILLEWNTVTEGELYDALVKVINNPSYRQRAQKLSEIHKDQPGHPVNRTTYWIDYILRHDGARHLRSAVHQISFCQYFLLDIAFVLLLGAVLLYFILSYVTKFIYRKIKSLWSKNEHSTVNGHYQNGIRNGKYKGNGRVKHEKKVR

[6] = (§1) In vivo inhibition of SFT de novo synthesis in adult C57BL/6 mouse kidney assessed as reduction in [13C] galactose incorporation into SFT at 1 mg/kg, po via gavage treated with compound for 1 hr prior to intraperitoneal injection of [13C] galactose measured after 5 hrs of compound administration relative to control; assay type: functional
[7] = target: T3, UDP-glucuronosyltransferase 1A1 (Homo sapiens, UniProt P22309); assay: Inhibition of UGT1A1 (unknown origin); assay type: ADME
T3 sequence (P22309 whole entry): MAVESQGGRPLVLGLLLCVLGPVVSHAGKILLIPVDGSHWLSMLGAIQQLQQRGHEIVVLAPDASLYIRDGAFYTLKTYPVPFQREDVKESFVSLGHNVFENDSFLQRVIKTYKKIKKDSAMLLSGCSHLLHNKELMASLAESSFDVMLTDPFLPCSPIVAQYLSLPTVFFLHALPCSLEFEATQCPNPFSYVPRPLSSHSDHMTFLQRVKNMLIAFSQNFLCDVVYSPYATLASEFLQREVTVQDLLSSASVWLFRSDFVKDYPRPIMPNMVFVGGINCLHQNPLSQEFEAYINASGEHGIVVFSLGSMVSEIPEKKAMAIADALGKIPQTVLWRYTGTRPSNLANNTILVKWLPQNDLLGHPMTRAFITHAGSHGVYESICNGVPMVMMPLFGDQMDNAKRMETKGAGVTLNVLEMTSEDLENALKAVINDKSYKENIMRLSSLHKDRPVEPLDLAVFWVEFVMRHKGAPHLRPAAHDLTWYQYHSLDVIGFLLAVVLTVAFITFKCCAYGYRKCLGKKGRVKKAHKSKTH

[8] = target: T2, 2-hydroxyacylsphingosine 1-beta-galactosyltransferase; assay: Inhibition of mouse UGT8 assessed as redcution in SFT accumulation
[9] = as §1, with “GalCer” for “SFT”; assay type: functional
[10] = Volume of distribution at steady state in Sprague-Dawley rat at 1 mg/kg, iv; assay type: ADME, organism-based; conditions: in vivo, read-out: Vdss
[11] = Tmax in Sprague-Dawley rat at 3 mg/kg, po; assay type: ADME, organism-based; conditions: in vivo
[12] = (§2) In vivo inhibition of GalCer de novo synthesis in PN14 to PN21 days C57BL/6 mouse brain assessed as reduction in [13C] galactose incorporation into GalCer at 30 mg/kg, po bid for 2 days and single dose at day 3 treated 1 hr prior to intraperitoneal injection of [13C] galactose measured after 5 hrs of last dose relative to control; assay type: functional; conditions: C57BL/6, 72 h, time 3 day
[13] = as §2, with “10” for “30”; assay type: functional; conditions: C57BL/6, 72 h, time 3 day
[14] = as §1, with “at 0.3” for “at 1”; assay type: functional
[15] = Oral bioavailability in C57BL/6 mouse at 3 mg/kg; assay type: ADME, organism-based; conditions: in vivo
[16] = Half life in C57BL/6 mouse at 1 mg/kg, iv; assay type: ADME, organism-based; conditions: in vivo
[17] = Oral bioavailability in Beagle dog at 3 mg/kg; assay type: ADME, organism-based, Canis lupus familiaris; conditions: in vivo
[18] = as §1, with “of GalCer” for “of SFT”, “into GalCer” for “into SFT”, “at 3” for “at 1”; assay type: functional
[19] = as §1, with “of GalCer” for “of SFT”, “into GalCer” for “into SFT”, “at 10” for “at 1”; assay type: functional
[20] = Half life in Beagle dog at 1 mg/kg, iv; assay type: ADME, organism-based, Canis lupus familiaris; conditions: in vivo
[21] = as §1, with “at 10” for “at 1”; assay type: functional
[22] = Drug uptake in C57BL/6 mouse brain at 3 mg/kg, iv measured at 1 hr; assay type: ADME, organism-based; conditions: read-out: Drug uptake

SMILES: CNC(=O)c1csc2c(C(F)(F)F)cc(N3CCC(OC(=O)N[C@@H](C)COC(F)(F)F)CC3)nc12
- Vd [1]: 3.32 L/kg
- IC50 [2]: 0.2 nM
- clearance [3]: 6.52 mL/min/kg
- Cmax [4]: 306 ng/mL
- IC50 [5]: 0.2 nM
- inhibition in vivo at 1 mg/kg [6]: 50%
- IC50 [7]: > 10000 nM
- IC50 [8]: 0.3 nM
- inhibition in vivo at 1 mg/kg [9]: 43%
- Vd [10]: 1.52 L/kg
- Tmax [11]: 0.83 h
- inhibition in vivo at 30 mg/kg [12]: 94%
- inhibition in vivo at 10 mg/kg [13]: 94%
- inhibition in vivo at 0.3 mg/kg [14]: 29%
- bioavailability [15]: 34%
- half-life [16]: 1.13 h
- bioavailability [17]: 52%
- inhibition in vivo at 3 mg/kg [18]: 72%
- inhibition in vivo at 10 mg/kg [19]: 85%
- half-life [20]: 13.6 h
- inhibition in vivo at 10 mg/kg [21]: 95%
- concentration at 1 h [22]: 148 ng/mL
